{"source": "patent US20220023278A1", "about": "“ANTI-AGING METHOD COMPRISING APPLYING JWA GENE” (Simcere Pharmaceutical Co., Ltd., priority 2019, published 2022)", "key": {"12-month-old mice": {"tested_on": "12-month-old mice", "assay": "Feeding 12-month-old mice with test feed containing 1 g/kg JAC-4", "type": "in vivo", "experimental": "12-month-old mice were housed in specific pathogen free (SPF) conditions at an ambient temperature of 22±2° C. and a relative humidity of 40%-60%, in day/night cycles of 12 h/12 h simulated by lighting. Mice were fed with sterile acidified water, common feeds (without compound JAC-4) or test feeds (with compound JAC-4).\nIn general, the daily feed consumption of each mouse is about 10% of its body weight. Therefore, when the mice consume 1 g/kg of JAC-4 experimental feed, it is equivalent to the daily intake of 100 mg/kg of JAC-4. The mice were weighed every two weeks from the start of feeding and scored on the aging appearance every two weeks from the sixth week. The higher the score, the more obvious the aging appearance. The mice were photographed monthly and changes in appearance were recorded. In all the experiments attention was paid to ethical guidelines for the investigation of experimental pain in conscious animals."}, "[1]": {"tested_on": "naturally aging mice (24 months old)", "assay": "Feeding naturally aging 24-month-old mice with test feed containing 2 g/kg JAC-4", "type": "in vivo", "conditions": "test feed 2 g/kg, 10 weeks", "experimental": "Feeding 24-month-old mice with the test feed containing 2 g/kg of the compound JAC-4 (equivalent to 200 mg JAC-4/kg body weight).\nMice were housed in the same conditions as Example 12. After feeding for 10 weeks, the mice were anesthetized. The whole blood was collected, allowed to stand for 30 min at room temperature, and centrifuged at 3000 rpm for 15 min. The supernatant, i.e., serum, was collected and analyzed by Hitachi 7100 automatic biochemical analyzer. Liver, spleen and kidney tissues of the mice were isolated on ice, fixed with 4% paraformaldehyde, or frozen at −80° C. The fixed tissues were processed into a paraffin section or frozen section with a thickness of 5 μm, stained with HE to visualize the morphological and pathological changes in the liver, spleen and kidney. The liver section was stained with oil red O for fat deposition and stained with periodic acid-Schiff (PAS) for glycogen. Total protein was extracted from the liver and spleen frozen at −80° C., and cell membrane proteins were extracted from the liver frozen at −80° C. Western blot was performed to detect the expression of JWA protein in liver and spleen tissues, the expression of p-AKT, AKT, p-GSK3β and GSK3β proteins in liver tissues, and the expression of glucose transporter (Glut 2) in cell membrane proteins of liver tissues. A biochemical kit (purchased from Nanjing Jiancheng Bioengineering Institute, Nanjing, China) was used to detect the activities of Superoxide dismutase (SOD), as well as the main rate-limiting enzymes of glucose and lipid metabolism in liver tissues. In all the experiments attention was paid to ethical guidelines for the investigation of experimental pain in conscious animals."}, "JWA protein": {"tested_on": "JWA protein", "assay": "Western blot of JWA protein expression in HBE cells", "type": "cell-based, human", "conditions": "24 hours and 48 hours, 1, 10, and 100 μmol/L", "experimental": "The HBE cells in the logarithmic growth phase were digested, plated at a density of 5×10^5/cell onto a 60 mm cell culture dish, and incubated in different doses of the compound JAC-4 for 24 hours or 48 hours, respectively. The cells were then treated with 0.18 mL of radio immunoprecipitation assay (RIPA, containing 0.5% PMSF) cell lysate for protein extraction, and centrifuged at 12,000×g for 15 minutes. The supernatant was collected and the protein concentration was measured. The proteins were heated and separated by electrophoresis through 12.5% polyacrylamide gel. 70 μg of the heated proteins was loaded into each well and separated by electrophoresis at 60 V for 30 minutes and 90 V for 1-1.5 hours. The proteins were then transferred from the gel to a PVDF membrane using a mini-genie transfer apparatus. The PVDF membrane was blocked with 5% skim milk, incubated at room temperature for 1-2 hours, and washed with TBST (containing 0.1% Tween 20). The washing step was repeated 3 times for 5 minutes each time. The blocked membrane was incubated overnight with primary antibody at 4° C., and then washed with TBS (containing 0.1% Tween 20). The washing step was repeated 3 times for 5 minutes each time. The blocked membrane was incubated at room temperature for 1-2 hours with secondary antibody, and then washed with TBST (containing 0.1% Tween 20). […]"}, "[2]": {"assay": "HPLC analysis of compound in processed, Co60-sterilized test feed", "type": "physicochemical", "conditions": "pelleted feed, Co60 irradiation", "source_text": "The compound JAC-4 (purity>99%) was mixed with an equal amount of standard mouse feed. Specifically, 1 g of compound JAC-4 was thoroughly mixed with 1 g of basic feed materials; 2 g of the mixture was thoroughly mixed with 2 g of basic feed materials; 4 g of the mixture was thoroughly mixed with 4 g of basic feed materials, and so on, thereby obtaining two test feeds respectively containing 1 g/kg and 2 g/kg of the compound JAC-4. According to the standard operating procedures for feed, the test feeds were processed into pellets, vacuum packaged, and sterilized by a Co60 source irradiation. The feed processing was entrusted to a professional company. To verify that the compound JAC-4 was evenly distributed in the mixed feeds and not damaged in the structure during processing, the sterilized feeds were randomly sampled and fully extracted with organic solvents. The content of the compound JAC-4 was then measured by High Performance Liquid Chromatography and it was confirmed that the compound JAC-4 was not damaged and the content thereof met the requirements (FIGS. 38-40)."}, "JWA gene": {"tested_on": "JWA gene", "assay": "JWA reporter gene assay (dual-luciferase) in HBE cells", "type": "cell-based, human", "conditions": "24 hours treatment", "source_text": "2012 bp upstream of the JWA transcription start site (referred to “JWA promoter sequence” hereafter) was amplified by RT-PCR according to the human-derived JWA promoter sequence (FIG. 35), and inserted into a pGL3-Neo vector by using KpnI and NheI restriction enzyme sites, thereby yielding a recombinant vector (FIG. 36) containing the JWA promoter sequence. The recombinant vector was transferred into E. coli. (DH5a). Positive clones were sequenced to verify accuracy, thereby obtaining a neomycin-resistant reporter plasmid containing the JWA gene promoter. The plasmid and corresponding strains were stored at −70° C. for use.\nHuman bronchial epithelial (HBE) cells were cultured at a density of 3000 cells per well in a 384-well plate and allowed to adhere together. […]\nAfter incubation, the 384-well plate was taken out, allowing the reagents and cells to equilibrate to room temperature of 18-22° C. […] The luciferase activity was analyzed by using a Dual-Luciferase Reporter Assay kit (Promega) and measured by a chemiluminescence analyzer (3010 C chemiluminescence analyzer). […]"}, "[3]": {"conditions": "test feed 1 g/kg vs common feed"}}, "data": [{"molecule": "c1ccc(CSc2nnc(C3COc4ccccc4O3)o2)nc1", "note": "(centres unmarked) [JAC-4]", "values": [{"measurement": "body weight", "setting": "12-month-old mice; 22nd week, test feed 1 g/kg (100 mg/kg daily) vs common feed", "result": "no statistical difference"}, {"measurement": "hair loss", "setting": "12-month-old mice; [3]", "result": "significant decrease"}, {"measurement": "score of aging appearance", "setting": "12-month-old mice; [3]", "result": "significant decrease"}, {"measurement": "SOD in the liver", "setting": "[1]", "result": "increase"}, {"measurement": "SOD in the serum", "setting": "[1]", "result": "increase"}, {"measurement": "glycogen synthase in the liver", "setting": "[1]", "result": "increased"}, {"measurement": "rate-limiting enzyme related to glucose decomposition in the liver", "setting": "[1]", "result": "increased"}, {"measurement": "serum glucose", "setting": "[1]", "result": "significantly reduced"}, {"measurement": "serum triglycerides", "setting": "[1]", "result": "significantly reduced"}, {"measurement": "age-related inflammatory cell infiltration around the central vein of the liver", "setting": "[1]; HE staining", "result": "significantly reduced"}, {"measurement": "morphology of liver, kidney and spleen", "setting": "[1]; HE staining", "result": "did not produce observable abnormal changes"}, {"measurement": "glycogen synthesis in the liver", "setting": "[1]; PAS staining", "result": "increased"}, {"measurement": "AKT phosphorylation in liver", "setting": "[1]; Western blot", "result": "activated"}, {"measurement": "GSK3β in liver", "setting": "[1]; Western blot", "result": "inhibited"}, {"measurement": "Glut 2 expression in liver cell membranes", "setting": "[1]; Western blot", "result": "increased"}, {"measurement": "expression of JWA protein in liver tissue", "setting": "[1]; Western blot", "result": "increased significantly"}, {"measurement": "expression of JWA protein in spleen tissue", "setting": "[1]; Western blot", "result": "increased significantly"}, {"measurement": "expression level of JWA protein", "setting": "JWA protein", "result": "enhanced"}, {"measurement": "integrity of compound in feed after processing and sterilization", "setting": "[2]", "result": "not damaged"}, {"measurement": "activation of JWA gene expression (luciferase reporter)", "setting": "JWA gene", "result": "sharp dose-effect relationship"}]}]}
